{
  "source": "patent US20030158267A1",
  "about": "“Method and compositions for inhibiting the scent tracking ability of biting midges” (priority 2002, published 2003)",
  "test_system": "biting midges (Culicoides furens)",
  "assay": "Competitive field test: biting midges attracted to, killed by and collected in a CO2/octenol-baited heated electrical grid device, with or without test compound emitted",
  "type": "in vivo",
  "details": "for Midges collected: linalool 1 mg/hr; for Reduction of average biting midge kill counts: over three trials, linalool 1 mg/hr vs no linalool",
  "protocol": "A device comprising a cylindrical housing essentially shaped like an opened one-gallon paint can, was equipped to release determinable amounts of one or more of CO2, octenol and test compound of this invention. The device housing was equipped (covered) at it its open end with an electrical grid operating at a temperature of approximately 110° F. (44° C.) for killing any midges attracted to the grid and thereby collecting the killed midges in the housing. With the device in operation, biting midges would be attracted by the scent of CO2 and/or octenol eminating from the interior of the housing and from the heat of the electrical grid. Then, with the additional introduction of test compound from the housing it was possible to determine the inhibiting effect of the test compound by determining the decrease in biting midges attracted and killed by the teat device. The test was conducted in a designated test area known for its abundance of biting midges along the Indian River in Vero Beach, Fla. at the U.S. Department of Agriculture test facility. Competitive tests were conducted over a twelve day period in September.. During Days 1 to 3 and 7 to 9 the test conditions of the test device were set to mimic a bird as the target, namely the device emitted 50 cc/min CO2 and no octenol, and during Days 4 to 6 and 10 to 12 the test conditions were set to mimic a mammal as the target, namely the device emitted 50 cc/min CO2 and 7 mg/hr octenol. In these competitive tests, the inhibiting compound was either not emitted (Days 1 to 6) or emitted (Days 7 to 12). The test then determined the number of midges killed and collected in the device without the test compound present, and the number of midges killed and collected in the device with the test compound present in order to determine the ability of the test compound to inibit the ability of the biting midges (Culicoides furens) to sense the […] target.",
  "data": [
    {"smiles": "C=CC(C)(O)CCC=C(C)C", "note": "(centres unmarked) [Linalool, linalool]", "values": [
      {"measurement": "Midges collected", "setting": "Day 7, device mimicking a bird: CO2 50 cc/min, octenol 0 mg/hr", "result": 13},
      {"measurement": "Midges collected", "setting": "Day 8, device mimicking a bird: CO2 50 cc/min, octenol 0 mg/hr", "result": 5},
      {"measurement": "Midges collected", "setting": "Day 9, device mimicking a bird: CO2 50 cc/min, octenol 0 mg/hr", "result": 14},
      {"measurement": "Midges collected", "setting": "Day 10, device mimicking a mammal: CO2 50 cc/min, octenol 7 mg/hr", "result": 29},
      {"measurement": "Midges collected", "setting": "Day 11, device mimicking a mammal: CO2 50 cc/min, octenol 7 mg/hr", "result": 81},
      {"measurement": "Midges collected", "setting": "Day 12, device mimicking a mammal: CO2 50 cc/min, octenol 7 mg/hr", "result": 364},
      {"measurement": "Midges collected, total", "setting": "Days 7-9 total, bird mimic: CO2 50 cc/min, no octenol, linalool 1 mg/hr (without linalool, days 1-3: total 176)", "result": "Total 32"},
      {"measurement": "Midges collected, Avg./day", "setting": "Days 10-12 average per day, mammal mimic: CO2 50 cc/min, octenol 7 mg/hr, linalool 1 mg/hr (without linalool: 1137)", "result": "Avg./day 158"},
      {"measurement": "Midges collected, total", "setting": "Days 10-12 total, mammal mimic: CO2 50 cc/min, octenol 7 mg/hr, linalool 1 mg/hr (without linalool, days 4-6: total 3410)", "result": "Total 474"},
      {"measurement": "Reduction of average biting midge kill counts", "setting": "device mimicking a bird (CO2 50 cc/min, no octenol)", "result": 81, "unit": "%"},
      {"measurement": "Reduction of average biting midge kill counts", "setting": "device mimicking a mammal (CO2 50 cc/min, octenol 7 mg/hr)", "result": 86, "unit": "%"}
    ]}
  ]
}
